Assay results from patent US20220187282A1, “CARDIOMYOCYTE PROLIFERATION” (The Council of the Queensland Institute of Medical Research, priority 2019, published 2022).
Read-outs that look alike come from different tables or passages of the source.

How the values were obtained:
Type in all cases: biochemical
[1] = molecular target: kinases (Homo sapiens, UniProt Q9UQM7); conditions: CAMK2A FRET-Z-Lyte SP; Test Conc(μM):ATP Conc(μM) 1:10
[2] = molecular target: kinases (Homo sapiens, UniProt Q9Y4K4); conditions: MAP4K5 (KHS1) FRET-Z-Lyte SP; Test Conc(μM):ATP Conc(μM) 1:50
[3] = molecular target: kinases (Homo sapiens, UniProt O96013); conditions: PAK4 FRET-Z-Lyte SP; Test Conc(μM):ATP Conc(μM) 1:5
[4] = molecular target: kinases (Homo sapiens, UniProt O75460); conditions: ERN1 FRET-Lantha SP; Test Conc(μM) 1
[5] = molecular target: kinases (Homo sapiens, UniProt Q9BWU1); conditions: Test Conc(μM) 1
Sequence of kinases (Homo sapiens, UniProt Q9BWU1) (Q9BWU1 whole entry): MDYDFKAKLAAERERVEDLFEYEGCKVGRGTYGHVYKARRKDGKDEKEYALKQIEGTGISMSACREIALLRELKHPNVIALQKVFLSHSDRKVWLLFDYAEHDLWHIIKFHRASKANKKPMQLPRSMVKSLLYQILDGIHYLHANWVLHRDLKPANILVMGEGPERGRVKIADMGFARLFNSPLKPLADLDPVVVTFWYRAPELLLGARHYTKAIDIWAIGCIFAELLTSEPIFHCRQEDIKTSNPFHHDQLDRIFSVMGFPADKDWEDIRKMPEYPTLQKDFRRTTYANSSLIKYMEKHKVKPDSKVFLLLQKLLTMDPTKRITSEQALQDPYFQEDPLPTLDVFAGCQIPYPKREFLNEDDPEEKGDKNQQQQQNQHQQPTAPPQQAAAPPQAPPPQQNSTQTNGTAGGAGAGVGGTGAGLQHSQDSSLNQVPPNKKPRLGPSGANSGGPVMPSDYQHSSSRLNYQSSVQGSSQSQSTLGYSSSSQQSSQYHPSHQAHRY

[6] = molecular target: kinases (Homo sapiens, UniProt Q9UIK4); conditions: DAPK2 FRET-Lantha SP; Test Conc(μM) 1
[7] = molecular target: kinases (Homo sapiens, UniProt Q5S007)
Sequence of kinases (Homo sapiens, UniProt Q5S007) (Q5S007 whole entry): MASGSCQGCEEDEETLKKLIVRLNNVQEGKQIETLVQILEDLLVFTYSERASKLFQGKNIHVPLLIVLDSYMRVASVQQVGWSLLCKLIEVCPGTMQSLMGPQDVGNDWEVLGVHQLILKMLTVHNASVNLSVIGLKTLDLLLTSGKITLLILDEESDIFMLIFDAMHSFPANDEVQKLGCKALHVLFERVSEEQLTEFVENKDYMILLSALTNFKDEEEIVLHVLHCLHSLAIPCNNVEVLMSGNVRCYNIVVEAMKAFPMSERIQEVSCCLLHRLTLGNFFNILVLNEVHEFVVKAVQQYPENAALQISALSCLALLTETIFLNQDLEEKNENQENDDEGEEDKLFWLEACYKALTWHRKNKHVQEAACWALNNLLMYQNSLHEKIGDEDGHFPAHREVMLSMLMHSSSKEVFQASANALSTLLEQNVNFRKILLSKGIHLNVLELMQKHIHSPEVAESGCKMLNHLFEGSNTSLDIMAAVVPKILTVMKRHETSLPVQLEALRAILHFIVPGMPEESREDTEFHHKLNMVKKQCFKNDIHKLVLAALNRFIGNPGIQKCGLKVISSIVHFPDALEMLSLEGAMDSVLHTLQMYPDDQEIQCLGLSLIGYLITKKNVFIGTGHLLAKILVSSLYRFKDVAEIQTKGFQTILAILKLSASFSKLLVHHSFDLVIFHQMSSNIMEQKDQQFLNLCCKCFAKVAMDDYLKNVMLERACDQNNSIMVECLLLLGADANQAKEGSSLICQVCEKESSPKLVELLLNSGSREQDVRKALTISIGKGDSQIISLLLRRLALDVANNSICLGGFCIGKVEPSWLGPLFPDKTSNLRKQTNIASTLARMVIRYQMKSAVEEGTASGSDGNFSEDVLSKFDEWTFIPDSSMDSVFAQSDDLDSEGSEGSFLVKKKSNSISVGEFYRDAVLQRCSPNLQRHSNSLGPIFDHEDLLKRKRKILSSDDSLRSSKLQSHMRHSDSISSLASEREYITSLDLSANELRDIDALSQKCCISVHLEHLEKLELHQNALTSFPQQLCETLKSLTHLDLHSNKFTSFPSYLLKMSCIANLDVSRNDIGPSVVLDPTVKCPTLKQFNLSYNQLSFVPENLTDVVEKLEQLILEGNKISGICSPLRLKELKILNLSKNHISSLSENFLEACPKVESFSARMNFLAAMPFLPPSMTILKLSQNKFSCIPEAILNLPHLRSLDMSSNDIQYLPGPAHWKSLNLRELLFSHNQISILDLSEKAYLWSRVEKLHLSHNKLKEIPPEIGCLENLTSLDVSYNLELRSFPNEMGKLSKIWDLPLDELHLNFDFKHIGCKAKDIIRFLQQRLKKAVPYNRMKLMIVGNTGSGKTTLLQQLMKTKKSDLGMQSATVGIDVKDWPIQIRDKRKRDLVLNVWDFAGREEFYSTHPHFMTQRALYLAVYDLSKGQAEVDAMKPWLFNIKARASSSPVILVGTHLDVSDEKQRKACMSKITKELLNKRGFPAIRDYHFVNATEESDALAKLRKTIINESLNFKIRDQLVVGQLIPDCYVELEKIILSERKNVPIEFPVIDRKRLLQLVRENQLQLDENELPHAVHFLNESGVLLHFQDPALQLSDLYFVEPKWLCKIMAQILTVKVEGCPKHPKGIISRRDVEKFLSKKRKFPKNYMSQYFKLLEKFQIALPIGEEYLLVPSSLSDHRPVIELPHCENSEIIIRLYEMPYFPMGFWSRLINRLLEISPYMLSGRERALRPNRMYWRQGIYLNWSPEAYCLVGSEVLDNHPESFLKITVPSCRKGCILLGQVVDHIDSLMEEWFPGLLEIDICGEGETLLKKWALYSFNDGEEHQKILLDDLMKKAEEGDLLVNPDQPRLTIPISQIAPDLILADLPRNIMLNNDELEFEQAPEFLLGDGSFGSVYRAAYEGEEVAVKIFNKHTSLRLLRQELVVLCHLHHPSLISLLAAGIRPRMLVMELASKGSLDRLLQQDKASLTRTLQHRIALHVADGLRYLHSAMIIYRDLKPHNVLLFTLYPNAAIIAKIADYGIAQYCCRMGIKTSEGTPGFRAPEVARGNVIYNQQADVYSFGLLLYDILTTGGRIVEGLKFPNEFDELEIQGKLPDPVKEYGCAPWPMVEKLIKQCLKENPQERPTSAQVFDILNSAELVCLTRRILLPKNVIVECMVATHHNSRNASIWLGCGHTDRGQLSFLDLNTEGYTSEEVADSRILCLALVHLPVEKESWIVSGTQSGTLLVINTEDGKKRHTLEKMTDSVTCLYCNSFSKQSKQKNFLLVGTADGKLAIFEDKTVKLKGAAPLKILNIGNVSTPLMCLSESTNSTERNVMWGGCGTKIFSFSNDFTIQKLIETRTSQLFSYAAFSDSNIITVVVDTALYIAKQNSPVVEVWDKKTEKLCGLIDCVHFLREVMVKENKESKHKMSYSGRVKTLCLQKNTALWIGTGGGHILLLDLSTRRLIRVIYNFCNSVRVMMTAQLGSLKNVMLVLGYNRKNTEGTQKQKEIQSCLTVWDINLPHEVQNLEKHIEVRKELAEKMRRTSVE

[8] = molecular target: kinases (Homo sapiens, UniProt P17252); conditions: PRKCA (PKC alpha) Z-Lyte SP; Test Conc(μM):ATP Conc(μM) 1:25
[9] = molecular target: kinases (Homo sapiens, UniProt Q00534); conditions: CDK6 Cyclin D1 FRET-Adapta SP; Test Conc(μM):ATP Conc(μM) 1:10
[10] = molecular target: kinases (Homo sapiens, UniProt Q8N5S9); conditions: CAMKK1 (Alpha) FRET-Lantha SP; Test Conc(μM) 1
[11] = molecular target: kinases (Homo sapiens, UniProt Q8NEV4); conditions: MYO3A (MYO3 alpha) Lantha SP; Test Conc(μM) 1
Sequence of kinases (Homo sapiens, UniProt Q8NEV4) (Q8NEV4 whole entry): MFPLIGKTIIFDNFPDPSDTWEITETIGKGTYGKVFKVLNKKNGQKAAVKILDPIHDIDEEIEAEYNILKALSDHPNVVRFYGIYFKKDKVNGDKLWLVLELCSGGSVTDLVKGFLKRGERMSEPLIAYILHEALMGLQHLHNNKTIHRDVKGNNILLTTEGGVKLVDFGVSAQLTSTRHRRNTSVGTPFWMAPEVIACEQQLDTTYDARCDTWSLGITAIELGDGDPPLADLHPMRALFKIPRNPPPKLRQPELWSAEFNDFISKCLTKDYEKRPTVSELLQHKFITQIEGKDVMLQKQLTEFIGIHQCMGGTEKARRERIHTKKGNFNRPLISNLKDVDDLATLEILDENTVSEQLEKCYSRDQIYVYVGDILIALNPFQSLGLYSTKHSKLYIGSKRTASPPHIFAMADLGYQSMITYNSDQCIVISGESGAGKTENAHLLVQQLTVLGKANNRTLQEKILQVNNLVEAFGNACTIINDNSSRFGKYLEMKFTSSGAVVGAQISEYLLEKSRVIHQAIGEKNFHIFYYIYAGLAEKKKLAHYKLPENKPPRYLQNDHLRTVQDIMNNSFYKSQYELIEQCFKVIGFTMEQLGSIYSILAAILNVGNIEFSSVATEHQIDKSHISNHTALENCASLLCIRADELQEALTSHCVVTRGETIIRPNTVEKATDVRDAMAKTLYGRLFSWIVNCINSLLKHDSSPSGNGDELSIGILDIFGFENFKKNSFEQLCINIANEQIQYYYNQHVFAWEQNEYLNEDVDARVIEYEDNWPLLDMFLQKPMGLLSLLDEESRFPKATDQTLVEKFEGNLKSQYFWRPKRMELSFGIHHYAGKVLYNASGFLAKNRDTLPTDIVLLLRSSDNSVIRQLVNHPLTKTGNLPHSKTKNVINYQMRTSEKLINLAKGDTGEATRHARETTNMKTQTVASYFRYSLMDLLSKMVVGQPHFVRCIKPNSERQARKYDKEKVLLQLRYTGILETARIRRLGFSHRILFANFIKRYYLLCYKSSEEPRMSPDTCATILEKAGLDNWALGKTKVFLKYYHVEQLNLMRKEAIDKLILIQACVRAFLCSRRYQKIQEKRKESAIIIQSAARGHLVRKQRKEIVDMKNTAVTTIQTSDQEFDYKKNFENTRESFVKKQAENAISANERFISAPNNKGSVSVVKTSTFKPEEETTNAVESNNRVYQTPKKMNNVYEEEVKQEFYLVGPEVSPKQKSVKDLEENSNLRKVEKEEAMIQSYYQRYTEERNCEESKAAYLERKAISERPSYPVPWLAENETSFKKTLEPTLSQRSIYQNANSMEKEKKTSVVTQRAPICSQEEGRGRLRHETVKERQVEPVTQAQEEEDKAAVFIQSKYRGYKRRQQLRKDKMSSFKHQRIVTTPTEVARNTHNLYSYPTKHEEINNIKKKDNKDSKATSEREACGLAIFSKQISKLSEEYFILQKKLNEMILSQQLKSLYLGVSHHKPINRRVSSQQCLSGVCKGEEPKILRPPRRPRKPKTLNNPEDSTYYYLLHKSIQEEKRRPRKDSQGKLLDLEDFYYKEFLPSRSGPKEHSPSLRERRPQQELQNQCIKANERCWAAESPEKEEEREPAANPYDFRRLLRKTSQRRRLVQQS

[12] = molecular target: kinases (Homo sapiens, UniProt P42680); conditions: TEC FRET-Lantha SP; Test Conc(μM) 1
[13] = molecular target: kinases (Homo sapiens, UniProt P07948); conditions: LYN A Hu Phos FRET-Z-Lyte SP; Test Conc(μM):ATP Conc(μM) 1:25
[14] = molecular target: kinases (Homo sapiens, UniProt Q9HAZ1); conditions: CLK4 FRET-Lantha SP; Test Conc(μM) 1
[15] = molecular target: kinases (Homo sapiens, UniProt P31751); conditions: AKT2 (PKB beta) FRET-Z-Lyte SP; Test Conc(μM):ATP Conc(μM) 1:200
[16] = molecular target: kinases (Homo sapiens, UniProt Q13237); conditions: PRKG2 (PKG2) FRET-Z-Lyte SP; Test Conc(μM):ATP Conc(μM) 1:150
[17] = molecular target: kinases (Homo sapiens, UniProt P53667); conditions: LIMK1 FRET-Lantha SP; Test Conc(μM) 1
[18] = molecular target: kinases (Homo sapiens, UniProt Q00535)
Sequence of kinases (Homo sapiens, UniProt Q00535) (Q00535 whole entry): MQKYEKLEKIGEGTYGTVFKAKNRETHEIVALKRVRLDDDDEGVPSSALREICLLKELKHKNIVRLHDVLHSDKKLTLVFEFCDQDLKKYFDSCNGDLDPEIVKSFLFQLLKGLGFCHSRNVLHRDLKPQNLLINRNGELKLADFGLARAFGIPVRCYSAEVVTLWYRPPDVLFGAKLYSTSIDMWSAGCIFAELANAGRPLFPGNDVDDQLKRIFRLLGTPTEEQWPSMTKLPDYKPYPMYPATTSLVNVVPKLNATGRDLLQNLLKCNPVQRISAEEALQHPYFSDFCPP

[19] = molecular target: kinases (Homo sapiens, UniProt P07333); conditions: CSF1R (FMS) FRET-Z-Lyte SP; Test Conc(μM):ATP Conc(μM) 1:500
[20] = molecular target: kinases (Homo sapiens, UniProt Q13464); conditions: ROCK1 FRET-Z-Lyte SP; Test Conc(μM):ATP Conc(μM) 1:5
[21] = molecular target: kinases (Homo sapiens, UniProt P35626); conditions: ADRBK2 (GRK3) FRET-Z-Lyte SP; Test Conc(μM):ATP Conc(μM) 1:10
[22] = molecular target: kinases (Homo sapiens, UniProt P41279); conditions: MAP3K8 (COT) Cascade Z-Lyte SP; Test Conc(μM):ATP Conc(μM) 1:100
[23] = molecular target: kinases (Homo sapiens, UniProt Q06418); conditions: TYRO3 (RSE) FRET-Z-Lyte SP; Test Conc(μM):ATP Conc(μM) 1:25
[24] = molecular target: kinases (Homo sapiens, UniProt P43403); conditions: ZAP70 *Mn* FRET-Z-Lyte SP; Test Conc(μM):ATP Conc(μM) 1:5
[25] = molecular target: kinases (Homo sapiens, UniProt Q8N568); conditions: DCAMKL2 (DCK2) FRET-Z-Lyte SP; Test Conc(μM):ATP Conc(μM) 1:150
[26] = molecular target: kinases (Homo sapiens, UniProt O43353); conditions: RIPK2 FRET-Lantha SP; Test Conc(μM) 1
[27] = molecular target: kinases (Homo sapiens, UniProt P78527); conditions: DNA-PK FRET-Z-Lyte SP; Test Conc(μM):ATP Conc(μM) 1:25
[28] = molecular target: kinases (Homo sapiens, UniProt Q96GX5); conditions: MASTL FRET-Lantha SP; Test Conc(μM) 1
[29] = LRRK2 FL FRET-Adapta SP, Test Conc(μM):ATP Conc(μM) 1:50
[30] = LRRK2 Hu Phos FRET-Adapta SP, Test Conc(μM):ATP Conc(μM) 1:75
[31] = CDK5 (Inactive) FRET-Lantha SP, Test Conc(μM) 1
[32] = CDK5/p25 FRET-Z-Lyte SP, Test Conc(μM):ATP Conc(μM) 1:10
[33] = CDK5/p35 FRET-Z-Lyte SP, Test Conc(μM):ATP Conc(μM) 1:10

Row | SMILES | Mean Inhib (%) [1] [%] | Mean Inhib (%) [2] [%] | Mean Inhib (%) [3] [%] | Mean Inhib (%) [4] [%] | Mean Inhib (%) ([5]; CDK11(Inactive) FRET-Lantha SP) | Mean Inhib (%) [6] [%] | Mean Inhib (%) [7, 29] [%] | Mean Inhib (%) [7, 30] [%] | Mean Inhib (%) [8] [%] | Mean Inhib (%) [9] [%] | Mean Inhib (%) [10] [%] | Mean Inhib (%) [11] [%] | Mean Inhib (%) [12] [%] | Mean Inhib (%) [13] [%] | Mean Inhib (%) [14] [%] | Mean Inhib (%) [15] [%] | Mean Inhib (%) [16] [%] | Mean Inhib (%) [17] [%] | Mean Inhib (%) [18, 31] [%] | Mean Inhib (%) [18, 32] [%] | other results
1 | Cc1cc(Oc2ccnc(Nc3ccc(S(N)(=O)=O)cc3)c2)c(-c2ccccn2)nc1C [compound 65] | −3.3 | 38.0 | 7.4 | 1.0 | 1.0 | −0.8 | 3.0 | 6.1 | −2.0 | 6.7 | −6.4 | 1.6 | −1.4 | 49.5 | 0.4 | 2.3 | 0.2 | 1.8 | 17.2 | 8.0 | CDK11 Cyclin C FRET-Lantha SP Mean Mean Inhib (%) ([5]; CDK11 Cyclin C): 3.8%; Mean Inhib (%) [18, 33]: 2.5%; Mean Inhib (%) [19]: 20.0%; Mean Inhib (%) [20]: 1.6%; Mean Inhib (%) [21]: −2.5%; Mean Inhib (%) [22]: 21.2%; Mean Inhib (%) [23]: 1.4%; Mean Inhib (%) [24]: 0.0%; Mean Inhib (%) [25]: 4.9%; Mean Inhib (%) [26]: 64.0%; Mean Inhib (%) [27]: 13.9%; Mean Inhib (%) [28]: 13.5%
2 | Cc1ccc(NC(=O)c2ccnc(N3CCOCC3)c2)cc1Nc1ccnc(N2CC(C)OC(C)C2)n1 (stereo not shown) [compound 3] | 1.0 | −7.8 | 0.9 | −3.4 | −0.2 | −2.5 | 0.5 | 13.2 | 23.3 | −1.8 | −7.3 | 10.8 | 5.7 | 6.3 | 6.4 | 8.0 | 2.4 | 2.2 | 5.2 | 2.0 | Mean Inhib (%) ([5]; CDK11 Cyclin C FRET-Lantha SP): 2.1%; Mean Inhib (%) [18, 33]: 0.9%; Mean Inhib (%) [19]: 12.1%; Mean Inhib (%) [20]: 45.9%; Mean Inhib (%) [21]: 0.7%; Mean Inhib (%) [22]: 6.1%; Mean Inhib (%) [23]: 9.3%; Mean Inhib (%) [24]: 8.1%; Mean Inhib (%) [25]: 5.5%; Mean Inhib (%) [26]: 13.0%; Mean Inhib (%) [27]: 13.7%; Mean Inhib (%) [28]: 2.3%
